Data on one compound can be found in patent US8816095B2, “Na channels, disease, and related assays and compositions” (Georgetown University, priority 2008, dated 2014).

For one data set, the target named is T1, hNav1.7 (Homo sapiens, UniProt Q15858).
T1 construct: expressed in transfected cells; host or cells: HEK293
Description: Fluorescent (FRET) based sodium channel assay, hNav1.7. It is filed as cell-based. The note with it: HEK293 stably transfected with hNav1.7, 20 μM veratridine, read-out: hNav 1.7 IC50. The method, then:
Two isoforms of the channel were examined: hNav1.5, a cardiac sodium channel associated with arrhythmias, and hNav1.7, an isoform found in the peripheral nervous system.
HEK293 cells stably transfected with either hNav1.5 or hNav1.7 were plated at approximately 11,000-20,000 cells/well in flat bottom, poly-D-lysine coated black-wall, clear-bottom, 384-well plates (Becton Dickinson, Bedford, Mass.), and incubated overnight at 37° C. in a 10% CO2 atmosphere in growth medium. Cells were washed with 0.03 mL of Dulbecco's phosphate buffered saline (D-PBS) containing calcium and magnesium. Cells were then incubated with 0.025 mL of a solution containing 10 μM CC2-DMPE and 0.02% pluronic acid in D-PBS with calcium and magnesium; supplemented with 10 mM glucose, and 10 mM Hepes-NaOH, pH 7.4. […] Afterwards, cells were incubated in the dark at 25° C. for 45 min with 0.025 mL of a solution containing 5 μM DiSBAC2(3) in VIPR-S, in the absence or presence of test compound. At the end of the incubation period, the plate was placed in a FLIPR TETRA instrument (MDS Analytical Technologies, Sunnyvale Calif.), illuminated at 390-420 nm, and fluorescence emissions were recorded at approximately 1 Hz at 460 and 580 nm. Following a 7 second baseline reading, 0.025 mL of VIPR-S containing 10 μM veratridine for Nav1.5 or 20 μM veratridine for Nav1.7 was added to each well, and the emissions of both dyes were recorded for an additional 33 seconds. The change in fluorescence resonance energy transfer (FRET) ratio (F/F0) was calculated as: F/F0=((A460/A580/(I460/I580) where A and I represent the readings after or before addition of veratridine, respectively, at the indicated wavelengths. For I, the readings from 2-5 seconds were averaged, and for A, readings from 3 seconds after the signal had reached a plateau level (usually within 30-40 s) were also averaged. Triplicate measurements were performed for each experimental condition and the data were averaged.

Another data set deals with T2, hERG potassium channels (Homo sapiens, UniProt Q12809).
T2 construct: expressed in transfected cells; host or cells: HEK-293 (membranes)
T2 sequence (Q12809 whole entry): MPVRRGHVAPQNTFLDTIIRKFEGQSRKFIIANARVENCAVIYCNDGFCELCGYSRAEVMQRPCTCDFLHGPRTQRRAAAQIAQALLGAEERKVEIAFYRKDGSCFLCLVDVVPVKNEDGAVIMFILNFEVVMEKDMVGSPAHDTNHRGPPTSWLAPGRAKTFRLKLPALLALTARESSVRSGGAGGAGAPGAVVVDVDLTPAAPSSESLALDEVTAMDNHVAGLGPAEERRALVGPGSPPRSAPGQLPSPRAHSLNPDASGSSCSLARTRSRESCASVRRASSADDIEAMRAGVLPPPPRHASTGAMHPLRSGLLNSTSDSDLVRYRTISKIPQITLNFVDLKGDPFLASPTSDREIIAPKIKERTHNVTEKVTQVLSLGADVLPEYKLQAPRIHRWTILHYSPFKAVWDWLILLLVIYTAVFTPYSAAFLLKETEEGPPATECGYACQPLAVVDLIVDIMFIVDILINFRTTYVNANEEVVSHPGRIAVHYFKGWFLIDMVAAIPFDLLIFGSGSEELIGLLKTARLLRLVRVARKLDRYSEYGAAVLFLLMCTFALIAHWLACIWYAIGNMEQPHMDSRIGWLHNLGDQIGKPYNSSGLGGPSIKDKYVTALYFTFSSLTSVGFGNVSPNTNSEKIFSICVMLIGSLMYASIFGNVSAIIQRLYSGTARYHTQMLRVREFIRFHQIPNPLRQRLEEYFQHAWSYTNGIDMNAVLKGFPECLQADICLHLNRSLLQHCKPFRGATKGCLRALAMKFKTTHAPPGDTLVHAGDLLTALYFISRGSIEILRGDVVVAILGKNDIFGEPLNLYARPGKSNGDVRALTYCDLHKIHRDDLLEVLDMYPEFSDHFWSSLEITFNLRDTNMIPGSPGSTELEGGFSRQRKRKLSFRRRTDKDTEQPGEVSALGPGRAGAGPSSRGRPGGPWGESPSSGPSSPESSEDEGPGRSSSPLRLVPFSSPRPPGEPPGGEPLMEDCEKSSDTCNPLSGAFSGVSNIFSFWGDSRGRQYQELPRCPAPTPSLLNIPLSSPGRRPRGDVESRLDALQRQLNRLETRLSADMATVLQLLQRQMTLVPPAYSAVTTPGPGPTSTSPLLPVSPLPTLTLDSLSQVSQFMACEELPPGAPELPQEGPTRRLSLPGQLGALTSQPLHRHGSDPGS
Put plainly: hERG binding assay ([35S]MK-499 displacement). Particulars: [35S]MK-499, HEK-293 hERG membranes. From the text:
All four compounds were also counter-screened for human ether-a-go-go-related gene (hERG) activity against the radio-ligand MK-0499. Blockade of hERG K^+ channels is widely regarded as the predominant cause of drug-induced QT prolongation. (Aronov, A J Med Chem. 2006 Nov. 16; 49(23):6917-21).
MK-499, a potent hERG blocker, was used in a ligand binding assay to evaluate the binding of test compounds to hERG potassium channels as previously described (Wang, J et al. Am J Physiol Heart Circ Physiol, 2003, 284: H256-H267).^2 Test compounds were incubated with 0.05 nM of radiolabeled MK-499 ([35S]MK-499; specific Activity=1,279,010 μCi/μmol) in an assay buffer solution (70 mM NaCl, 60 mM KCl, 10 mM HEPES/NaOH (pH 7.4), 2 mM MgCl2, 1 mM CaCl2) also containing membranes isolated from HEK-293 cells stably expressing hERG channels in 96 well polypropylene deep-well assay plates at room temperature (25° C.) for >90 min. Assay plates were rinsed three time with buffer (130 mM NaCl, 10 mM HEPES/NaOH (pH 7.4), 2 mM MgCl2, 1 mM CaCl2) and the solution transferred to a Packard FilterMate Universal Harvester apparatus and filtered using PerkinElmer UniFilter-96 GF/C 96-well white microplates pre-soaked with 0.3% BSA (10 mL/L of 30% BSA). Plates were dried overnight at 37° C., or for 2 hrs at 56° C. The bottom of the plates were sealed and 0.025 mL of Microscint 0 was added to each well. The plates were top sealed and counted for 2 min/well in a Packard TopCount Scintillation counter. Test compounds were evaluated in a five point titration format using half-log steps from 0.3 μM to 30 μM. […] Less than 5% of the added radioactivity was retained on the filters. Assays were performed in triplicate.
(hERG is a cardiac potassium channel; its block is linked to QT prolongation.)

For data set [1], the system named is human prostate xenograft PC3. Description: PC3 xenograft study. Format: in vivo. Particulars: mice bearing PC3 xenografts; 10 mg/kg ip every other day. The method, then:
Intraperitoneally (ip) 10 mg/kg of racemic (±)-1 and each enantiomer was administered in mice bearing PC3 xenografts (FIG. 16). This dose was administered qd every other day for 24 days and effects on reducing the tumor volume were measured.
PC-3 cell line (ATCC, Manassas, Va.) was cultured in RPMI-1640 with L-glutamine (Mediatech Inc., Herdon, Va.) containing 5% fetal bovine serum (FBS), 2.5 mM L-glutamine at 37° C. with 5% CO2.
Male athymic balbc/nude mice (18-22 g) were injected with 3×106 (0.3 mL) of the human prostate cancer cells (PC3). The human prostate cancer cells were injected in the subcutaneous tissue of the right axillary region of the mice. One week after the injection, the mice were randomly sorted into four groups with 6 mice per group. […] The stock of each compound was added to polyethylene glycol 400 (PEG) (Hampton) and PBS in a 1:1 ratio. The test concentrations were obtained by diluting with PEG/PBS. The tumor-bearing mice received an intraperitoneal injection (IP) with either 10 mg/kg of (±)-1, R-(−)-1 or S-(+)-1 or vehicle control respectively once every other day for 4 weeks. At the same time, the tumor size of each mouse was measured by caliper and calculated by the formula: Length×width×height/2.

A further data set relates to CWR22rv-1 cells. Put plainly: CWR22rv-1 prostate cancer cell death (propidium iodide, FACS). It is filed as cell-based, human. The method, then: CWR22Rv1 cells (ATCC, Manassas, Va.) were seeded in 6 well tissue culture plate at density of 300,000 cells/well and maintained in RPMI 1640 (Mediatech, Herndon, Va.) containing 10% fetal bovine serum, 2.5 mM L-glutamine, and penicillin-streptomycin (100 IU/ml and 100 μg/ml, respectively) at 37° C. with 5% CO2. Cells were then switched to serum free RPMI media overnight prior to drug treatment. Compounds were dissolved in 100% dimethylsulfoxide (DMSO) and diluted to the desired concentrations in serum free RPMI. Cells were treated with indicated drug concentrations (in triplicate per treatment point) for 24, 48, 72 hour. After treatment, cells were harvested by trypsinization and fixed in 70% ethanol. The fixed cells were then stained with propidium iodide (50 μg/ml) after treatment with RNase (5 μg/ml). The stained cells were analyzed for DNA content using FACSsort (Becton Dickinson). Cell cycle fractions were quantified with Cell Quest (Becton Dickinson) or ModFit LT (Verity Software House).

For data set [2] the following is noted: mouse, in vivo, ip.

T1 sequence (Q15858 whole entry): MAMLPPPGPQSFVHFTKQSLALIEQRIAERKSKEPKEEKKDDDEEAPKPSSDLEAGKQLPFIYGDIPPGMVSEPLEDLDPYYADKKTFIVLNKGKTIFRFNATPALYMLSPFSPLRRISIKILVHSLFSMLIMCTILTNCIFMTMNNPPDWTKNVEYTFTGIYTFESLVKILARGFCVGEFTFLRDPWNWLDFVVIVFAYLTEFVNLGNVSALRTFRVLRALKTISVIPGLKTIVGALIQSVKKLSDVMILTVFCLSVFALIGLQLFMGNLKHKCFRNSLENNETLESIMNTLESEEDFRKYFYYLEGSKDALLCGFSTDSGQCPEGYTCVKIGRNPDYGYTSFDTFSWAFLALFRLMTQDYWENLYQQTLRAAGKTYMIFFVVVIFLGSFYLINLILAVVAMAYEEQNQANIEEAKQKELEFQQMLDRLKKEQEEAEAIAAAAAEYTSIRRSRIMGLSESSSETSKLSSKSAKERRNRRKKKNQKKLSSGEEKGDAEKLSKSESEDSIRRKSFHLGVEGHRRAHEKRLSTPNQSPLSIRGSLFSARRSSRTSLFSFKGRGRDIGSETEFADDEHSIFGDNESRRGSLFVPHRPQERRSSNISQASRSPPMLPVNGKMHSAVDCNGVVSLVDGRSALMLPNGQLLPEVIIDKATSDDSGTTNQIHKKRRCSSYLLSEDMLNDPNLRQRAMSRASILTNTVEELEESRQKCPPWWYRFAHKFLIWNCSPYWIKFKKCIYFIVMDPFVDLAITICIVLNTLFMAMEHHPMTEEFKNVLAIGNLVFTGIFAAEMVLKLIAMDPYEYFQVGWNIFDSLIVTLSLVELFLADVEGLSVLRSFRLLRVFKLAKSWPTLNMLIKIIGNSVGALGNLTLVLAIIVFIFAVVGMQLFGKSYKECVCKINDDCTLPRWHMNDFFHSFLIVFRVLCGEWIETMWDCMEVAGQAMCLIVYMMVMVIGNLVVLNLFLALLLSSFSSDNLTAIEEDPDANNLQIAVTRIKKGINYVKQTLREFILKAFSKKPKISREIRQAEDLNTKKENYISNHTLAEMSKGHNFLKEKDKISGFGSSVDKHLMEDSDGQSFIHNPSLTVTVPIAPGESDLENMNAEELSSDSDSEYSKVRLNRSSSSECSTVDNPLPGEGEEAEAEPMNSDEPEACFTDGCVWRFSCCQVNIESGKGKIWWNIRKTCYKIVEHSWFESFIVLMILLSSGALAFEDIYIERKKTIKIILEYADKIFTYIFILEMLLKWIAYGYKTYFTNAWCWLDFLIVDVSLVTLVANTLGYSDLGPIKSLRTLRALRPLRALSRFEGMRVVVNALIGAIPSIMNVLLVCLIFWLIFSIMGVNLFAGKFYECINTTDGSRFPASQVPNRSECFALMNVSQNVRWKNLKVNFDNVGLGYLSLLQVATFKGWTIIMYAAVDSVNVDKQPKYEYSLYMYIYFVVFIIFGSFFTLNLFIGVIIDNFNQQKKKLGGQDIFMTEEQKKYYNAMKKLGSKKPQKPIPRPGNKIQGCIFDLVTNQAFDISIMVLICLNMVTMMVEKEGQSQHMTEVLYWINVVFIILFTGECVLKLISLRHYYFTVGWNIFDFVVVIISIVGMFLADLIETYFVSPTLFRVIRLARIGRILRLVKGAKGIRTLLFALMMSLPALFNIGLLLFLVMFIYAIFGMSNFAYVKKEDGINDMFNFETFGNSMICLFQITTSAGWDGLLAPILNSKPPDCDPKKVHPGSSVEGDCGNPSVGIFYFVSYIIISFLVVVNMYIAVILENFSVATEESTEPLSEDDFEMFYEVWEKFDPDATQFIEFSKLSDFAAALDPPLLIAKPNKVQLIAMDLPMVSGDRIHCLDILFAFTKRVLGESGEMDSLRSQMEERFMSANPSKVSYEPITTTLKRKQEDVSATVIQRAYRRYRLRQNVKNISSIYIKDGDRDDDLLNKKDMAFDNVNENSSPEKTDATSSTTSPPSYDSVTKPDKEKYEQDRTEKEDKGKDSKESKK

On to `CCCCCCCC(O)(C(N)=O)c1cccc(Cl)c1` (racemic) [(±)-1, 2-(3-chloro-phenyl)-2-hydroxy-nonanoic acid amide], for which the IC50 (commonly the concentration needed to halve the response being measured) on hNav1.7 is 1810 nM. The “% inhibition for hERG assay, 0.3 μM” value on hERG potassium channels (0.3 μM) is 15%. Also, the “% inhibition for hERG assay, 1 μM” value on hERG potassium channels (1 μM) is reported as 17%. Further, the “% inhibition for hERG assay, 3 μM” value on hERG potassium channels (3 μM) stood at 15%. Also, the “% inhibition for hERG assay, 10 μM” value on hERG potassium channels (10 μM) was determined as 51%. Besides, on hERG potassium channels (30 μM), the “% inhibition for hERG assay, 30 μM” value is 78%. Moreover, the “decrease in tumor volume” value in data set [1] amounted to 62%. In addition, the “cell death of CWR22rv-1 cells” value with CWR22rv-1 cells (25 μM, after 24 h) is “marginal effects”; with CWR22rv-1 cells (after 72 h), 25%. Besides, the “acute rotorod toxicity observations” value in data set [2] was “No deaths, spasms, respiratory disease was reported”.
